In patent US20260356819A1, “OXOISOINDOLINYL-SUBSTITUTED […] DERIVATIVE AND USE THEREOF” (GLUETACS THERAPEUTICS (SHANGHAI) CO., LTD., priority 2023, published 2026):

Legend:
Assay type in all cases: cell-based
Conditions in all cases: compounds at 50 nM and 500 nM
[1] = target: T1, IKZF2 (Homo sapiens, UniProt Q96SW2+Q9UKS7); experiment: Western blot degradation of IKZF2 in hPBMCs (24 h)
T1 construct: The supernatant was aspirated as the extracted total cell protein; endogenous in cells; host or cells: human peripheral blood mononuclear cells (hPBMCs)
How it was run: (§1)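 PBMC Western blot, 24 h treatment; test levels 50 nM and 500 nM. Band density ÷ internal control, normalised → % remaining; degradation (%) = 1 − remaining.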

[2] = target: T2, CK1α (Homo sapiens, UniProt P48729+Q96SW2); experiment: Western blot degradation of CK1α in hPBMCs (24 h)
T2 construct: The supernatant was aspirated as the extracted total cell protein; endogenous in cells; host or cells: human peripheral blood mononuclear cells (hPBMCs)
How it was run: as §1

[3] = target: T3, WEE1 (Homo sapiens, UniProt P30291+Q96SW2); experiment: Western blot degradation of WEE1 in hPBMCs (24 h)
T3 construct: The supernatant was aspirated as the extracted total cell protein; endogenous in cells; host or cells: human peripheral blood mononuclear cells (hPBMCs)
How it was run: as §1

[4] = target: T4, GSPT1 (Homo sapiens, UniProt P15170+Q96SW2); experiment: Western blot degradation of GSPT1 in hPBMCs (24 h)
T4 construct: The supernatant was aspirated as the extracted total cell protein; endogenous in cells; host or cells: human peripheral blood mononuclear cells (hPBMCs)
How it was run: as §1

[5] = target: T5, IKZF1 (Homo sapiens, UniProt Q13422+Q96SW2); experiment: Western blot degradation of IKZF1 in hPBMCs (24 h)
T5 construct: The supernatant was aspirated as the extracted total cell protein; endogenous in cells; host or cells: human peripheral blood mononuclear cells (hPBMCs)
How it was run: as §1

[6] = target: T6, IKZF3 (Homo sapiens, UniProt Q96SW2+Q9UKT9); experiment: Western blot degradation of IKZF3 in hPBMCs (24 h)
T6 construct: The supernatant was aspirated as the extracted total cell protein; endogenous in cells; host or cells: human peripheral blood mononuclear cells (hPBMCs)
How it was run: as §1

T5 sequence (Q13422 whole entry): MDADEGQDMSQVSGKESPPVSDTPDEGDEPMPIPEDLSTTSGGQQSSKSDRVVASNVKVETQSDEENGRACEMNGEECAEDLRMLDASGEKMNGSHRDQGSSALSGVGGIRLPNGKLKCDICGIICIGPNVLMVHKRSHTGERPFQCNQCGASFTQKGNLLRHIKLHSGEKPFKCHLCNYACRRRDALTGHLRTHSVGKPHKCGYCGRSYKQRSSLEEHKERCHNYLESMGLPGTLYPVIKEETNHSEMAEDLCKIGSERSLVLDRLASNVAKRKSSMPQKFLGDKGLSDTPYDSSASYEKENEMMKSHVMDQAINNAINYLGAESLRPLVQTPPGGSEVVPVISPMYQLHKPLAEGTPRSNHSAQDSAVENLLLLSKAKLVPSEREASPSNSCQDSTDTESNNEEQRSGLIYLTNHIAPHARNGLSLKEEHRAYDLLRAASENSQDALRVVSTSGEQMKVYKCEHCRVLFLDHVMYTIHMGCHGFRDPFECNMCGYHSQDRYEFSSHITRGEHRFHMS
T5 sequence (Q96SW2 whole entry): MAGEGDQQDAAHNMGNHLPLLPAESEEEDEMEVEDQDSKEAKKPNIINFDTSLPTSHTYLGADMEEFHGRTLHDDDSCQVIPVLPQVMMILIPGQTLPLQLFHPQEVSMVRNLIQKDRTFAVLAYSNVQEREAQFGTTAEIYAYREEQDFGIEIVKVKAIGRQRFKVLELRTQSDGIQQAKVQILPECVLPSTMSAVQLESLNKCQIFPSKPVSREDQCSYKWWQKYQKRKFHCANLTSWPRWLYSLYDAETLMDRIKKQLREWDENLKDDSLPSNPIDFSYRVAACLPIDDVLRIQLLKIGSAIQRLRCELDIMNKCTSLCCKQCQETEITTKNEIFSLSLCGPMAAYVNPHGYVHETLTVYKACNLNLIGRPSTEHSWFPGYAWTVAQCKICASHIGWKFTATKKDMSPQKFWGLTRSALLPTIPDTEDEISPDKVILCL
T5 sequence (Q16531 whole entry partner): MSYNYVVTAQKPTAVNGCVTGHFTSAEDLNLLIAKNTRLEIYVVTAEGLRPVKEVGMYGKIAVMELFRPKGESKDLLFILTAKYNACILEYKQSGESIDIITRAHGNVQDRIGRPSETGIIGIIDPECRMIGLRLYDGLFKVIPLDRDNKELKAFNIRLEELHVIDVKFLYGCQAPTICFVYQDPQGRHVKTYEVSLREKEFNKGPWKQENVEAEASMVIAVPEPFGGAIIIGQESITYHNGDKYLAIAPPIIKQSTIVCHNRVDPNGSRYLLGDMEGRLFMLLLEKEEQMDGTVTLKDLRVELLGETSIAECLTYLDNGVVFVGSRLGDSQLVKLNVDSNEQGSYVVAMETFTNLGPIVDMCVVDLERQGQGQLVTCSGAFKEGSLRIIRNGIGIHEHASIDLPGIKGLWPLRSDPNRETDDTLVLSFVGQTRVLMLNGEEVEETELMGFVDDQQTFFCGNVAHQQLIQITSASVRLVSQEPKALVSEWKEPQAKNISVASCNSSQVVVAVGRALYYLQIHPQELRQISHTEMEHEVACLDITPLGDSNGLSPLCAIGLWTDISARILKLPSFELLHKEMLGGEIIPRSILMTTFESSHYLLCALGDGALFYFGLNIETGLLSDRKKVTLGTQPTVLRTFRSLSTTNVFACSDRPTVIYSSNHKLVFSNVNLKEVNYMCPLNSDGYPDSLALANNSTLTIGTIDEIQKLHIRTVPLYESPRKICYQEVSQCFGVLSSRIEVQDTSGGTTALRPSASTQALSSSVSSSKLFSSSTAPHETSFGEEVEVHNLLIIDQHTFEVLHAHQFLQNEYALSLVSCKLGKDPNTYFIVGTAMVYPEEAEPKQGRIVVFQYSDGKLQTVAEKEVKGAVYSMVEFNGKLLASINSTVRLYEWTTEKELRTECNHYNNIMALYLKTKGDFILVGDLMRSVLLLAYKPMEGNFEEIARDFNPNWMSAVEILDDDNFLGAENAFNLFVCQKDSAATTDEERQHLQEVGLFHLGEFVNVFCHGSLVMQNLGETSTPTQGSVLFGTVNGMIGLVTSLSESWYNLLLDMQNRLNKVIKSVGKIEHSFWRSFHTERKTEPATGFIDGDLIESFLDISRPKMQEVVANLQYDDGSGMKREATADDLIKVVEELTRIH
T3 sequence (P30291 whole entry): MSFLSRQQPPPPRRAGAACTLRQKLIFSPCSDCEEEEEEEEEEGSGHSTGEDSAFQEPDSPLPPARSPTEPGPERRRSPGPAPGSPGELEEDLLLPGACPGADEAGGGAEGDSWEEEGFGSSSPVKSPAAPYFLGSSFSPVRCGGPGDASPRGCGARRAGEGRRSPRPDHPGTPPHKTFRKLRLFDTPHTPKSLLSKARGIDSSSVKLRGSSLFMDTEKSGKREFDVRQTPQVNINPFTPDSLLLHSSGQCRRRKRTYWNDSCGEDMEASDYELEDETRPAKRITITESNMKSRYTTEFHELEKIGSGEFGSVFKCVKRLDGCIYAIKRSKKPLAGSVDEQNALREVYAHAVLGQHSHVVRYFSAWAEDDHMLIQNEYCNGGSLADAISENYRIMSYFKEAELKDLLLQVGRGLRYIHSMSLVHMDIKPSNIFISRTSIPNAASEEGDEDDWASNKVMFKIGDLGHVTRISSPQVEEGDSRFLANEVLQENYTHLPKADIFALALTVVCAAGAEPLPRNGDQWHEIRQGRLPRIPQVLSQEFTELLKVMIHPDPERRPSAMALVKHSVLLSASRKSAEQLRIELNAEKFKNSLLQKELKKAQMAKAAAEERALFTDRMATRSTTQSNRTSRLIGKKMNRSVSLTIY
T3 sequence (Q96SW2 whole entry): as the sequence (Q96SW2 whole entry) above
T3 sequence (Q16531 whole entry partner): as the sequence (Q16531 whole entry partner) above
T6 sequence (Q9UKT9 whole entry): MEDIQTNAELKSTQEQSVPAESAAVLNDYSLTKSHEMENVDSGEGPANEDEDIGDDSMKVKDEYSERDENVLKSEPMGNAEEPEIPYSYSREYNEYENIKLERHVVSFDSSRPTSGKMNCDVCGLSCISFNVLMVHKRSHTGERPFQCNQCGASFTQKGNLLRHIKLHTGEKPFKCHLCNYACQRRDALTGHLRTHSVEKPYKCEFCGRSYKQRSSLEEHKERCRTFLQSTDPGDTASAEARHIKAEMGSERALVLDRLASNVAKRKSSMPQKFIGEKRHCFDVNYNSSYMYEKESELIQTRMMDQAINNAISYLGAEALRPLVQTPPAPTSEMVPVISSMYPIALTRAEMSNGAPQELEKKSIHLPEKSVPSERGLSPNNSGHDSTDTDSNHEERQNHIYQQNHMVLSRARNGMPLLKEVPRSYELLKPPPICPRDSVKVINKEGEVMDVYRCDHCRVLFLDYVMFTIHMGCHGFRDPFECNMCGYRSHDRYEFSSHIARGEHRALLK
T6 sequence (Q96SW2 whole entry): as the sequence (Q96SW2 whole entry) above
T6 sequence (Q16531 whole entry partner): as the sequence (Q16531 whole entry partner) above
T4 sequence (P15170 whole entry): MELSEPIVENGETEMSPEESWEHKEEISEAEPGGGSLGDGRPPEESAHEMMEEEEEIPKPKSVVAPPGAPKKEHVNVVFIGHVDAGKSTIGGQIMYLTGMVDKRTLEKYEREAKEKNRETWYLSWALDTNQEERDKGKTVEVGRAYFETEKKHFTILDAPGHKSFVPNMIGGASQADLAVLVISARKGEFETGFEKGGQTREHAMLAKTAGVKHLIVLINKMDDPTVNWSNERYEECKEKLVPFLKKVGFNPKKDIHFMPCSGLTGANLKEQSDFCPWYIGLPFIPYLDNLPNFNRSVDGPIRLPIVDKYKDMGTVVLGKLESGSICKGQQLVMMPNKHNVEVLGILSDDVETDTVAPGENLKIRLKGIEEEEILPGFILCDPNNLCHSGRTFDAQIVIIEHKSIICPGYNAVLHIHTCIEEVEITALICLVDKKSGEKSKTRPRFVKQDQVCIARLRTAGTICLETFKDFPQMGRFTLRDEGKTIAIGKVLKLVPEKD
T4 sequence (Q96SW2 whole entry): as the sequence (Q96SW2 whole entry) above
T4 sequence (Q16531 whole entry partner): as the sequence (Q16531 whole entry partner) above
T1 sequence (Q9UKS7 whole entry): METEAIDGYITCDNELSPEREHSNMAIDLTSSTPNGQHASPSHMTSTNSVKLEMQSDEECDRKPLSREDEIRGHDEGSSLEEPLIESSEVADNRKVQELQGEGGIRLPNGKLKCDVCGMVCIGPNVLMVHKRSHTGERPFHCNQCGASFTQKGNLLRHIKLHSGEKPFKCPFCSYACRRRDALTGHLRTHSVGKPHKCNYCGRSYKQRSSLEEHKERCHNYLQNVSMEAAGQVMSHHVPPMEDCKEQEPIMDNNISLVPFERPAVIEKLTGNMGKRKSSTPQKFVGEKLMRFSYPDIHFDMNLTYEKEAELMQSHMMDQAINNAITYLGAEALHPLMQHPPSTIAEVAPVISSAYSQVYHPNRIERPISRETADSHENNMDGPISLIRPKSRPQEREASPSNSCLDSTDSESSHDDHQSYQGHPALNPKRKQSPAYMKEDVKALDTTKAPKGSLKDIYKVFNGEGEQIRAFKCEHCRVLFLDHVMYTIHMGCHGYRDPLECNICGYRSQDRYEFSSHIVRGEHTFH
T1 sequence (Q96SW2 whole entry): as the sequence (Q96SW2 whole entry) above
T1 sequence (Q16531 whole entry partner): as the sequence (Q16531 whole entry partner) above

O=C1CCN(N2C(=O)c3ccc(CN4CCN(c5noc6cc(F)ccc56)CC4)cc3C2=O)C(=O)N1 [GT-07524, 2-(2,4-dioxotetrahydropyrimidin-1(2H)-yl)-5-((4-(6-fluorobenzo[d]isoxazol-3-yl)piperazin-1-yl)methyl)isoindoline-1,3-dione]
IKZF2 substrate protein remaining % [1]: A (0% ≤ substrate protein remaining % ≤80%) | CK1α substrate protein remaining % [2]: B (80%< substrate protein remaining % ≤100%) | WEE1 substrate protein remaining % [3]: A (0% ≤ substrate protein remaining % ≤80%) | GSPT1 substrate protein remaining % [4]: A (0% ≤ substrate protein remaining % ≤80%) | IKZF1 substrate protein remaining % [5]: A (0% ≤ substrate protein remaining % ≤80%) | IKZF3 substrate protein remaining % [6]: B (80%< substrate protein remaining % ≤100%)

O=C1CCN(N2C(=O)c3ccc(CN4CCN(C(c5ccccn5)c5ccccn5)CC4)cc3C2=O)C(=O)N1 [GT-06379, 5-((4-(di(pyridin-2-yl)methyl)piperazin-1-yl)methyl)-2-(2,4-dioxotetrahydropyrimidin-1(2H)-yl)isoindoline-1,3-dione]
IKZF2 substrate protein remaining % [1]: A (0% ≤ substrate protein remaining % ≤80%) | CK1α substrate protein remaining % [2]: B (80%< substrate protein remaining % ≤100%) | WEE1 substrate protein remaining % [3]: A (0% ≤ substrate protein remaining % ≤80%) | GSPT1 substrate protein remaining % [4]: A (0% ≤ substrate protein remaining % ≤80%) | IKZF1 substrate protein remaining % [5]: B (80%< substrate protein remaining % ≤100%) | IKZF3 substrate protein remaining % [6]: A (0% ≤ substrate protein remaining % ≤80%)

O=C1CCN(N2C(=O)c3ccc(CN4CC=C(c5ncnc6sc7c(c56)CCCC7)CC4)cc3C2=O)C(=O)N1 [GT-08433, 2-(2,4-dioxotetrahydropyrimidin-1(2H)-yl)-5-((4-(5,6,7,8-tetrahydrobenzo[4,5]thieno[2,3-d]pyrimidin-4-yl)-3,6-dihydropyridin-1(2H)-yl)methyl)isoindoline-1,3-dione]
IKZF2 substrate protein remaining % [1]: B (80%< substrate protein remaining % ≤100%) | CK1α substrate protein remaining % [2]: A (0% ≤ substrate protein remaining % ≤80%) | WEE1 substrate protein remaining % [3]: B (80%< substrate protein remaining % ≤100%) | GSPT1 substrate protein remaining % [4]: A (0% ≤ substrate protein remaining % ≤80%) | IKZF1 substrate protein remaining % [5]: B (80%< substrate protein remaining % ≤100%) | IKZF3 substrate protein remaining % [6]: A (0% ≤ substrate protein remaining % ≤80%)

O=C1CCN(N2C(=O)c3ccc(CN4CCN(c5nccc(Cl)c5Br)CC4)cc3C2=O)C(=O)N1 [GT-07291, 5-((4-(3-bromo-4-chloropyridin-2-yl)piperazin-1-yl)methyl)-2-(2,4-dioxotetrahydropyrimidin-1(2H)-yl)isoindoline-1,3-dione]
IKZF2 substrate protein remaining % [1]: B (80%< substrate protein remaining % ≤100%) | CK1α substrate protein remaining % [2]: B (80%< substrate protein remaining % ≤100%) | WEE1 substrate protein remaining % [3]: A (0% ≤ substrate protein remaining % ≤80%) | GSPT1 substrate protein remaining % [4]: A (0% ≤ substrate protein remaining % ≤80%) | IKZF1 substrate protein remaining % [5]: B (80%< substrate protein remaining % ≤100%) | IKZF3 substrate protein remaining % [6]: B (80%< substrate protein remaining % ≤100%)

CC1(C)CCC(CN2CC3CCC2CN3Cc2ccc3c(c2)C(=O)N(N2CCC(=O)NC2=O)C3=O)=C(c2ccc(Cl)cc2)C1 (stereo not drawn) [GT-07300, 5-((5-((4′-chloro-5,5-dimethyl-3,4,5,6-tetrahydro-[1,1′-biphenyl]-2-yl)methyl)-2,5-diazabicyclo[2.2.2]octan-2-yl)methyl)-2-(2,4-dioxotetrahydropyrimidin-1(2H)-yl)isoindoline-1,3-dione]
IKZF2 substrate protein remaining % [1]: B (80%< substrate protein remaining % ≤100%) | CK1α substrate protein remaining % [2]: B (80%< substrate protein remaining % ≤100%) | WEE1 substrate protein remaining % [3]: A (0% ≤ substrate protein remaining % ≤80%) | GSPT1 substrate protein remaining % [4]: B (80%< substrate protein remaining % ≤100%) | IKZF1 substrate protein remaining % [5]: B (80%< substrate protein remaining % ≤100%) | IKZF3 substrate protein remaining % [6]: B (80%< substrate protein remaining % ≤100%)

Cc1cc2c(N3CCN(Cc4ccc5c(c4)C(=O)N(N4CCC(=O)NC4=O)C5=O)CC3)ncnc2s1 [GT-08092, 2-(2,4-dioxotetrahydropyrimidin-1(2H)-yl)-5-((4-(6-methylthieno[2,3-d]pyrimidin-4-yl)piperazin-1-yl)methyl)isoindoline-1,3-dione]
IKZF2 substrate protein remaining % [1]: B (80%< substrate protein remaining % ≤100%) | CK1α substrate protein remaining % [2]: A (0% ≤ substrate protein remaining % ≤80%) | WEE1 substrate protein remaining % [3]: A (0% ≤ substrate protein remaining % ≤80%) | GSPT1 substrate protein remaining % [4]: A (0% ≤ substrate protein remaining % ≤80%) | IKZF1 substrate protein remaining % [5]: B (80%< substrate protein remaining % ≤100%) | IKZF3 substrate protein remaining % [6]: B (80%< substrate protein remaining % ≤100%)

O=C1CCN(N2Cc3cc(CN4CCN(c5ccnc(Cl)c5Cl)CC4)ccc3C2=O)C(=O)N1 [GT-07169, 1-(5-((4-(2,3-dichloropyridin-4-yl)piperazin-1-yl)methyl)-1-oxoisoindolin-2-yl)dihydropyrimidine-2,4(1H,3H)-dione]
IKZF2 substrate protein remaining % [1]: B (80%< substrate protein remaining % ≤100%) | CK1α substrate protein remaining % [2]: B (80%< substrate protein remaining % ≤100%) | WEE1 substrate protein remaining % [3]: A (0% ≤ substrate protein remaining % ≤80%) | GSPT1 substrate protein remaining % [4]: B (80%< substrate protein remaining % ≤100%) | IKZF1 substrate protein remaining % [5]: B (80%< substrate protein remaining % ≤100%) | IKZF3 substrate protein remaining % [6]: B (80%< substrate protein remaining % ≤100%)

Cc1sc2ncnc(N3CCCN(Cc4ccc5c(c4)C(=O)N(N4CCC(=O)NC4=O)C5=O)CC3)c2c1C [GT-08095, 5-((4-(5,6-dimethylthieno[2,3-d]pyrimidin-4-yl)-1,4-diazepan-1-yl)methyl)-2-(2,4-dioxotetrahydropyrimidin-1(2H)-yl)isoindoline-1,3-dione]
IKZF2 substrate protein remaining % [1]: B (80%< substrate protein remaining % ≤100%) | CK1α substrate protein remaining % [2]: A (0% ≤ substrate protein remaining % ≤80%) | WEE1 substrate protein remaining % [3]: A (0% ≤ substrate protein remaining % ≤80%) | GSPT1 substrate protein remaining % [4]: B (80%< substrate protein remaining % ≤100%) | IKZF1 substrate protein remaining % [5]: B (80%< substrate protein remaining % ≤100%) | IKZF3 substrate protein remaining % [6]: B (80%< substrate protein remaining % ≤100%)
